Results on two compounds are retold here after patent US12428416B2 (California Institute of Technology, priority 2018, dated 2025).

pIC50, pKd: −log10 of the molar value.

As usually defined, the half-life is the time needed for the level to fall by half in the phase considered. In general, pKd refers to −log10 of the Kd, conventionally taken in molar units. A word on the pIC50: it is the negative decadic logarithm of the IC50, by convention in mol/L.

A short description of data set [1]: Compound metabolic stability in hepatocytes. Particulars: hepatocytes from mice and rats (species not given); class symbols without key. It counts as in vitro ADME. As to the method:
The metabolic stability of compounds was determined in hepatocytes from mice and rats. Compounds were diluted to 5 μM in Williams' Medium E from 10 mM stock solutions. 10 μL of each compound was aliquoted into a well of a 96-well plate and reactions were started by aliquoting 40 μL of a 625,000 cells/mL suspension into each well. The plate was incubated at 37° C. with 5% CO2. At each corresponding time point, the reaction was stopped by quenching with ACN containing internal standards (IS) at a 1:3. Plates were shaken at 500 rpm for 10 min, and then centrifuged at 3,220×g for 20 minutes. Supernatants were transferred to another 96-well plate containing a dilution solution. Supernatants were analyzed by LC/MS/MS.
Compound half-life was estimated using the following equation: % Remaining Compound=Peak Area Ratios of Tested Compound vs. Internal Standard at End Point/Peak Area Ratios of Tested Compound vs. Internal Standard at Start Point Mouse Xenograft Studies

The target in another data set is ERK2 (Homo sapiens, UniProt P28482). Put plainly: ERK1 and 2 Enzymatic Inhibition Assay (ERK2). Particulars: 10 assay concentrations 2×10^−6 M to 6×10^−11 M, 1% DMSO. The class given is biochemical. Summed up: (§1)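 Ki determination: compounds serially diluted semi-logarithmically in DMSO and tested at 10 final concentrations from 2×10^−6 M to 6×10^−11 M with 1% final DMSO.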
Sequence of ERK2 (P28482 whole entry): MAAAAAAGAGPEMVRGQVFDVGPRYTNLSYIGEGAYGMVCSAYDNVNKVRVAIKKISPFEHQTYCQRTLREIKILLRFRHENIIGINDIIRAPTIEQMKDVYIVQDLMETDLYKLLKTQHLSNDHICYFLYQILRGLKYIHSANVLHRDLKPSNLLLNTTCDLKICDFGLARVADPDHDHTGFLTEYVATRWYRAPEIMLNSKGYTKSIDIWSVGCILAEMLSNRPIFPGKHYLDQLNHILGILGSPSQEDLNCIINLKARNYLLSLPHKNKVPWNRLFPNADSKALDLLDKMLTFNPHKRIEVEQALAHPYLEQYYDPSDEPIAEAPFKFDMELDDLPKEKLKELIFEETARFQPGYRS

In data set [2] the test system is drug-sensitive cell lines of Table 4. In words: Cell line growth retardation assay, average over sensitive cohort. The class given is cell-based, Human. Particulars: Homo sapiens, 144 h; geometric mean of IC50s over sensitive cohort (Table 4); 6 days growth; read-out: AvgSens IC50. Summed up:
(§2)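 Cancer cell lines treated 6 days with compound at 10 μM down to 0.0032 μM (5-fold steps) vs vehicle; cells counted by imaging on day 0 and day 6. Growth inhibition as ratio of population doublings with vs without compound; per-line IC50 from curve fit, cohort value as geometric mean.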

The nature of data set [3]: Mouse Maximum Tolerated Dose Studies. It counts as in vivo. Particulars: mice, oral gavage (PO). As to the method:
Mouse Maximum Tolerated Dose Studies
For maximum tolerated dose (MTD) determination studies, non-tumor bearing CD-1 athymic nude mice were randomized into […] treatment groups (5 mice per group) and treated with either 400, 300, 200, 100, 50 or 25 mg/kg of compound by daily PO, or 200, 100, 50, 25, or 12.5 mg/kg of compound twice daily PO. Mice were weighed daily and % body weight loss was calculated relative to individual mouse body weights at the start of treatment. […] MTD was determined as the highest dose at which a mean body weight loss of <10% over 14 days of dosing was observed.

Data set [4] deals with drug-resistant cell lines of Table 4. Put plainly: Cell line growth retardation assay, average over resistant cohort. It counts as cell-based, Human. Particulars: Homo sapiens, 144 h; geometric mean of IC50s over resistant cohort (Table 4); 6 days growth; read-out: AvgRes IC50. Summed up:
as §2

The target of a further data set is ERK1 (Homo sapiens, UniProt P27361). Put plainly: ERK1 and 2 Enzymatic Inhibition Assay (ERK1). Particulars: 10 assay concentrations 2×10^−6 M to 6×10^−11 M, 1% DMSO. It counts as biochemical. In outline:
as §1

Data set [5] relates to phosphorylated RSK (pRSK) in M275 cells. Put plainly: Western Blot for Total and pRSK. The class given is cell-based, human. Particulars: treatment for 4.5 hours and 24 hours, 200 nM. The method, then: Western Blot for Total and pRSK
For Western blot assays (see FIG. 14), protein lysates were obtained from either the M275 or M202 human melanoma cancer cell lines. For assay, cells were plated on 10 cm dishes and treated 24 hours later with either 200 nM of test compound in DMSO or DMSO control for 4.5 or 24 hours. After the treatment period, cells were washed twice in ice-cold PBS and lysed for 15 minutes at 4° C. using a mild lysis buffer (Cell Signaling Technology) containing a mixture of protease inhibitors (Calbiochem) and 1 mmol/L phenlymethylsulfonlyfluoride. Insoluble material was removed by centrifugation at 10,000×g for 10 minutes. Protein concentration of each sample was quantified by BCA (Pierce), resolved by SDS-PAGE, and transferred to nitrocellulose membranes (iBlot, Invitrogen Life Technology). Total (32D7, Cell Signaling Technologies) and phosphorylated ([…]; D1E9, Cell Signaling Technology) RSK protein were detected using the indicated antibody clones. All blots were repeated in duplicate and relative levels of individual proteins compared to a loading control (α-tubulin) (11H10; Cell Signaling Technology) were quantitated using the ECL Plus chemifluorescent reagent (Amersham Biosciences) and the ChemiDoc™ Touch Imaging System (BioRad).

Sequence of ERK1 (P27361 whole entry): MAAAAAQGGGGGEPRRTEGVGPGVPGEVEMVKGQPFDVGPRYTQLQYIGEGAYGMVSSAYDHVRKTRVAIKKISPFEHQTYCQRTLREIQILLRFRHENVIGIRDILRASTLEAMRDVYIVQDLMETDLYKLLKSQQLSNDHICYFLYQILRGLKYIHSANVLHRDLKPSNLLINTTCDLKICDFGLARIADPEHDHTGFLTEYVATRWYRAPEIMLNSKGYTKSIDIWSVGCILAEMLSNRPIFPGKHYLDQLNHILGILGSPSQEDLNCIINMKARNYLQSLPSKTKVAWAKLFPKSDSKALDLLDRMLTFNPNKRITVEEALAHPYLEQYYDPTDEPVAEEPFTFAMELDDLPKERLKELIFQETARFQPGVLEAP

Turning to `CC(NC(=O)c1ncc(-c2c[nH]c3ncc(N4CCOCC4)cc23)cn1)c1ccccc1` (stereo in doubt) [Compound 6, (R)-5-(5-morpholino-1H-pyrrolo[2,3-b]pyridin-3-yl)-N-(1-phenylethyl)pyrimidine-2-carboxamide], the half-life at 1 µM in data set [1] is greater than 25 min. Also, the pKd on ERK2 and at ERK1 was no less than 8.00 in each case. Moreover, the pIC50 in data set [2] is no less than 6.60; in data set [4] it was less than 6.30. Further, the “maximum tolerated QD dose” value in data set [3] (daily (QD)) is 200 mg/kg. Moreover, in data set [3] (twice daily (BID)), the “maximum tolerated BID dose” value stood at 100 mg/kg. Also, the “level of phosphorylated RSK (pRSK)” value in data set [5] was “decrease”.

Regarding `C[C@H](Cc1ccccc1)NC(=O)c1ncc(-c2c[nH]c3ncc(N4CCOCC4)cc23)cn1` [Compound 31, (R)-5-(5-morpholino-1H-pyrrolo[2,3-b]pyridin-3-yl)-N-(1-phenylpropan-2-yl)pyrimidine-2-carboxamide], in data set [1], the half-life at 1 µM was less than 25 min. Also, the pKd at ERK2 and at ERK1 was no less than 8.00 throughout. Further, the negative-log IC50 (pIC50) in data set [2] and in data set [4] was less than 6.30 each time.
